The values that follow come from PubChem BioAssay (NCI).

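Results reflect a 48-hour exposure of cells in 96-well plates to compound at five concentrations. GI50: concentration for 50% inhibition of growth. TGI marks complete inhibition of growth.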

Test systems include HCT-116 colon; NCI-H226 lung; SK-MEL-2 melanoma; SK-OV-3 ovarian; NCI-H23 lung; SK-MEL-28 melanoma; UACC-62 melanoma; RPMI-8226 leukemia; CAKI-1 renal; HOP-92 NSCLC.
Holding throughout (assay): growth of human tumour cells (NCI), 48 h

As for `O=C1N=C2Sc3ccc4ccccc4c3N2C1=O`, the TGI in the test on HCT-116 colon turned out to be 32.9 µM; with NCI-H226 lung, 57 µM; in the test with SK-MEL-2 melanoma, 71.9 µM; in the test with SK-OV-3 ovarian, 31.6 µM; in the test on NCI-H23 lung it was 53.3 µM; in the test on SK-MEL-28 melanoma, 56.3 µM. Also, the TGI was more than 100 µM in the test with UACC-62 melanoma, more than 100 µM in the test with RPMI-8226 leukemia, 46.2 µM with CAKI-1 renal and 30.6 µM with HOP-92 NSCLC.
Take `O=C(Nc1ccc(Br)cc1F)c1cc(Cl)ccc1O`: the GI50 was 0.522 µM with HCT-116 colon; 1.2 µM in the test on NCI-H226 lung; 0.372 µM with SK-MEL-2 melanoma; 0.441 µM in the test with SK-OV-3 ovarian; 0.492 µM in the test with NCI-H23 lung; 0.399 µM in the test with SK-MEL-28 melanoma. The GI50 in the test on UACC-62 melanoma was 0.292 µM; in the test with RPMI-8226 leukemia, 0.342 µM; with CAKI-1 renal it was 0.319 µM; in the test with HOP-92 NSCLC it was 0.174 µM. Besides, the TGI in the test with HCT-116 colon stood at 2.45 µM; in the test with NCI-H226 lung, 4.57 µM; in the test on SK-MEL-2 melanoma, 2 µM; in the test on SK-OV-3 ovarian it was 2.2 µM; in the test on NCI-H23 lung, 5.14 µM; in the test on SK-MEL-28 melanoma, 2.07 µM. In addition, the TGI in the test on UACC-62 melanoma is 1.16 µM; with RPMI-8226 leukemia, 1.88 µM; in the test with CAKI-1 renal it was 2.85 µM; in the test on HOP-92 NSCLC, 0.557 µM.
For `CCOc1ccc(/C=C2\N=C(c3ccc([N+](=O)[O-])cc3)OC2=O)cc1`, the TGI with HCT-116 colon, with NCI-H226 lung, in the test with SK-MEL-2 melanoma, in the test on SK-OV-3 ovarian, in the test with NCI-H23 lung and in the test with SK-MEL-28 melanoma was more than 100 µM each time. In addition, the TGI in the test on UACC-62 melanoma, in the test with RPMI-8226 leukemia, with CAKI-1 renal and in the test with HOP-92 NSCLC was more than 100 µM each time.
Regarding `CN1CCN(c2ccc(Nc3cc(-c4cccc(-n5ccc6cc(C7CC7)cc(F)c6c5=O)c4CO)cn(C)c3=O)nc2)CC1`, the GI50 with HCT-116 colon was 3.31 µM; with NCI-H226 lung it was 10.2 µM; in the test on SK-MEL-2 melanoma, 15 µM; in the test on SK-OV-3 ovarian, 14.6 µM; in the test on NCI-H23 lung it was 13.6 µM; in the test on SK-MEL-28 melanoma, 4.1 µM. Moreover, the GI50 in the test on UACC-62 melanoma is 2.4 µM; with RPMI-8226 leukemia it was 3.8 µM; in the test with CAKI-1 renal, 2.66 µM; in the test with HOP-92 NSCLC it was 1.89 µM. For the same compound, the TGI in the test with HCT-116 colon was determined as 18.9 µM; with NCI-H226 lung, 30.1 µM; in the test with SK-MEL-2 melanoma it was 35.1 µM; with SK-OV-3 ovarian, 29.5 µM; in the test with NCI-H23 lung, 37.3 µM; in the test with SK-MEL-28 melanoma, 17 µM. Besides, the TGI turned out to be 6.63 µM with UACC-62 melanoma, 19 µM with RPMI-8226 leukemia, 10.8 µM with CAKI-1 renal and 8.42 µM in the test on HOP-92 NSCLC.
In the case of `N=c1c2c(-c3ccccc3)c(-c3ccccc3)n(Cc3ccccc3)c2ncn1C1CCC(O)CC1` (stereo not drawn), the GI50 with HCT-116 colon was 0.0446 µM; with NCI-H226 lung, 0.517 µM; in the test on SK-MEL-2 melanoma, 1.08 µM; with SK-OV-3 ovarian, 2.32 µM; in the test on NCI-H23 lung it was 0.836 µM; with SK-MEL-28 melanoma, 0.624 µM. Besides, the GI50 with UACC-62 melanoma was 0.534 µM; with RPMI-8226 leukemia it was 0.318 µM; in the test with CAKI-1 renal it was 0.147 µM; with HOP-92 NSCLC, 0.24 µM. The TGI in the test with HCT-116 colon was found to be 1.75 µM; with NCI-H226 lung, 16.8 µM; in the test on SK-MEL-2 melanoma, 4.38 µM; in the test on SK-OV-3 ovarian it was 15.7 µM; with NCI-H23 lung, 22 µM; with SK-MEL-28 melanoma it was 2.22 µM. Moreover, the TGI with UACC-62 melanoma was determined as 7.06 µM; in the test on RPMI-8226 leukemia, 4.12 µM; in the test with CAKI-1 renal it was 1.89 µM; in the test with HOP-92 NSCLC, 4.33 µM.
As to `NS(=O)(=O)c1ccc(N=Nc2c(O)c(C(=O)O)cc3ccccc23)cc1`, the TGI in the test with HCT-116 colon, in the test on NCI-H226 lung, in the test with SK-MEL-2 melanoma, in the test on SK-OV-3 ovarian, in the test with NCI-H23 lung and in the test on SK-MEL-28 melanoma was more than 100 µM in each case. Also, the TGI with UACC-62 melanoma, in the test on RPMI-8226 leukemia, in the test on CAKI-1 renal and in the test on HOP-92 NSCLC was more than 100 µM in each case.
As for `COC(=O)c1c2c(c(C)[n+]([O-])c1C)C(=O)C=C(NCc1ccc(F)cc1)C2=O`, the GI50 was 0.319 µM with HCT-116 colon; 1.77 µM in the test with NCI-H226 lung; 1.11 µM in the test with SK-MEL-2 melanoma; 2.53 µM in the test on SK-OV-3 ovarian; 0.733 µM in the test with NCI-H23 lung; 1.1 µM in the test on SK-MEL-28 melanoma. Moreover, the GI50 in the test with UACC-62 melanoma is 0.175 µM; in the test on RPMI-8226 leukemia, 1.25 µM; with CAKI-1 renal it was 0.527 µM; with HOP-92 NSCLC, 1.72 µM. Moreover, the TGI is 1.18 µM in the test with HCT-116 colon; 4.13 µM with NCI-H226 lung; 2.78 µM in the test on SK-MEL-2 melanoma; 6.45 µM with SK-OV-3 ovarian; 3.41 µM with NCI-H23 lung; 3.37 µM in the test with SK-MEL-28 melanoma. Besides, the TGI in the test on UACC-62 melanoma was 1.16 µM; in the test on RPMI-8226 leukemia, 4.81 µM; in the test on CAKI-1 renal, 2.76 µM; with HOP-92 NSCLC, 3.83 µM.
Take `O=C(NC[C@H](O)CN1CCc2ccccc2C1)c1cc(NC2COC2)ncn1`: the GI50 in the test on HCT-116 colon is 22.7 µM; with NCI-H226 lung, 9.88 µM; with SK-MEL-2 melanoma it was 15.9 µM; with SK-OV-3 ovarian, 77.2 µM; in the test on NCI-H23 lung it was 19.3 µM; in the test with SK-MEL-28 melanoma, 31.6 µM. In addition, the GI50 is 21.3 µM with UACC-62 melanoma, 4.22 µM in the test on RPMI-8226 leukemia, 26.4 µM in the test on CAKI-1 renal and 18.1 µM in the test on HOP-92 NSCLC. For the same compound, the TGI in the test with HCT-116 colon is more than 100 µM; with NCI-H226 lung, 40.2 µM; in the test on SK-MEL-2 melanoma, 51.7 µM; in the test with SK-OV-3 ovarian, more than 100 µM; with NCI-H23 lung, more than 100 µM; in the test on SK-MEL-28 melanoma, more than 100 µM. Moreover, the TGI in the test with UACC-62 melanoma is more than 100 µM; in the test with RPMI-8226 leukemia it was 43.5 µM; in the test with CAKI-1 renal it was more than 100 µM; with HOP-92 NSCLC, more than 100 µM.
`O=C(c1ccco1)c1c(C(F)(F)F)nc2ccc(Cl)cc2[n+]1[O-]`: the GI50 with HCT-116 colon is more than 100 µM; in the test with NCI-H226 lung, more than 100 µM; in the test with SK-MEL-2 melanoma it was more than 100 µM; with SK-OV-3 ovarian, more than 100 µM; with NCI-H23 lung, 69.5 µM; in the test with SK-MEL-28 melanoma it was more than 100 µM. Besides, the GI50 in the test on UACC-62 melanoma is more than 100 µM; in the test on RPMI-8226 leukemia, more than 100 µM; in the test on CAKI-1 renal, 26.6 µM; in the test on HOP-92 NSCLC, 44 µM. In addition, the TGI with HCT-116 colon, in the test on NCI-H226 lung, in the test on SK-MEL-2 melanoma, in the test on SK-OV-3 ovarian, in the test with NCI-H23 lung and with SK-MEL-28 melanoma was more than 100 µM in each case. Also, the TGI with UACC-62 melanoma is more than 100 µM; in the test on RPMI-8226 leukemia, more than 100 µM; in the test with CAKI-1 renal, 85.8 µM; in the test with HOP-92 NSCLC, more than 100 µM.
As for `CCN1CCN(c2cc(C)c3cc(NC(=O)c4ccc(OC)c(OC)c4)ccc3n2)CC1`, the GI50 in the test with HCT-116 colon is 3.16 µM; in the test on NCI-H226 lung, more than 54.7 µM; in the test on SK-MEL-2 melanoma, more than 40.5 µM; with SK-OV-3 ovarian, more than 30.1 µM; with NCI-H23 lung, 50.5 µM; in the test with SK-MEL-28 melanoma it was 19.9 µM. For the same compound, the GI50 in the test on UACC-62 melanoma is more than 39.4 µM; with RPMI-8226 leukemia, 2.68 µM; in the test on CAKI-1 renal, more than 44.6 µM; in the test on HOP-92 NSCLC it was 13.4 µM. Besides, the TGI is more than 100 µM in the test with HCT-116 colon; more than 100 µM with NCI-H226 lung; more than 61.8 µM in the test on SK-MEL-2 melanoma; more than 73.3 µM in the test with SK-OV-3 ovarian; more than 100 µM in the test with NCI-H23 lung; more than 59.7 µM with SK-MEL-28 melanoma. For the same compound, the TGI was more than 64.8 µM in the test on UACC-62 melanoma, 29.4 µM in the test on RPMI-8226 leukemia, more than 100 µM with CAKI-1 renal and 85.5 µM in the test on HOP-92 NSCLC.
As for `CC(C)C1=Cc2ccc3c(c2C(=O)C1=O)CCCC3(C)C`, the TGI in the test on HCT-116 colon came to 3.33 µM; in the test with NCI-H226 lung, 35.9 µM; in the test on SK-MEL-2 melanoma it was 34.6 µM; with SK-OV-3 ovarian, 32 µM; with NCI-H23 lung, 29.6 µM; in the test on SK-MEL-28 melanoma it was 13.1 µM. In addition, the TGI in the test on UACC-62 melanoma amounted to 15.2 µM; with RPMI-8226 leukemia it was 5.17 µM; in the test on CAKI-1 renal it was 6.69 µM; with HOP-92 NSCLC, 9.79 µM.
Take `O=c1oc2ccc(-c3ccc(F)cc3F)cc2c(=O)n1-c1cccc(C(F)(F)F)c1`: the GI50 with HCT-116 colon was 1.33 µM; in the test with NCI-H226 lung, 1.43 µM; in the test on SK-MEL-2 melanoma it was 0.55 µM; in the test on SK-OV-3 ovarian it was 1.02 µM; in the test with NCI-H23 lung, 0.687 µM; in the test with SK-MEL-28 melanoma, 0.756 µM. Also, the GI50 was 0.382 µM in the test with UACC-62 melanoma, 0.395 µM in the test on RPMI-8226 leukemia, 1.22 µM in the test on CAKI-1 renal and 0.172 µM with HOP-92 NSCLC. The TGI in the test on HCT-116 colon was 3.45 µM; with NCI-H226 lung, 5.19 µM; in the test on SK-MEL-2 melanoma, 2.85 µM; with SK-OV-3 ovarian, 4.54 µM; in the test on NCI-H23 lung, 3.59 µM; in the test on SK-MEL-28 melanoma it was 6.56 µM. Also, the TGI in the test with UACC-62 melanoma stood at 2.79 µM; with RPMI-8226 leukemia, 3.26 µM; in the test on CAKI-1 renal, 5.19 µM; with HOP-92 NSCLC, 0.931 µM.
Regarding `CC(=O)Nc1ccc(-c2csc(Nc3cccc(-c4csc(C)n4)c3)n2)cc1`, the GI50 is 0.697 µM in the test with HCT-116 colon; 4.92 µM in the test with NCI-H226 lung; 8.03 µM in the test on SK-MEL-2 melanoma; 2.38 µM in the test on SK-OV-3 ovarian; 3.31 µM in the test on NCI-H23 lung; 7.32 µM in the test with SK-MEL-28 melanoma. The GI50 was 0.139 µM in the test on UACC-62 melanoma, 0.789 µM in the test with RPMI-8226 leukemia and 1.61 µM with CAKI-1 renal. Moreover, the TGI with HCT-116 colon was more than 26.7 µM; with NCI-H226 lung it was 16.8 µM; with SK-MEL-2 melanoma, more than 27.3 µM; in the test with SK-OV-3 ovarian, 19.1 µM; in the test with NCI-H23 lung, more than 27.7 µM; in the test with SK-MEL-28 melanoma it was more than 37.3 µM. The TGI is 1.51 µM in the test on UACC-62 melanoma, 8.75 µM with CAKI-1 renal and more than 23.1 µM in the test on HOP-92 NSCLC.
